{
  "source": "patent US20050197372A1",
  "about": "(priority 2002, published 2005)",
  "key": {"[1]": {"tested_on": "platelets (agglutination with fibrinogen-coated beads)", "assay": "Ultegra rapid platelet-function assay (RPFA-ASA)", "format": "cell-based, human", "settings": "baseline 159 ± 27", "protocol": "(§1) None of them received aspirin or any other anti-platelet agents. All subjects underwent blood sampling after at least 30 minutes of rest and 2 or more hours of fasting. Blood was drawn between 8 and 10 a.m. in order to avoid any diurnal influence and sampled from an antecubital vein using a 21-gauge butterfly needle containing 3.8% sodium citrate (1:9 volume) after having discarded the first 1.5 ml of free running blood. Eleven Vacutainer tubes (4.5 ml) were collected for a total of 49 ml of whole blood-citrate mixture from each study participant. One tube was kept as an internal control and was incubated with buffer solution. […] To avoid possible observer bias, blood samples were coded and blinded. Sampling procedures, and platelet studies were performed by individuals unaware of the protocol.\nA rapid platelet-function assay cartridge test (RPFA-ASA, Ultegra® Accumetrics, Inc., San Diego, Calif., USA), using polystyrene beads coated cartridges with lyophilized human fibrinogen-coated microparticles, and propyl gallat served as an agonist. The whole blood citrate mixture was added to the cartridge, and agglutination between platelets and coated beads was recorded. The data mirrored turbidometric platelet aggregation and reflected the degree of platelet prostaglandin blockade. Smith J W, et al., Circulation 1999; 99: 620-625. Ultegra® assays were performed in duplicate. An electronic quality control test was performed on each instrument every day of use prior to performing any subject samples."}, "[2]": {"tested_on": "human platelets (platelet-rich plasma)", "assay": "Platelet-rich plasma aggregation induced by 5 μM ADP", "format": "cell-based", "settings": "for Platelet rich plasma aggregation induced by 5 μM ADP: 60 minutes at 37° C., baseline 75 ± 8", "protocol": "as §1\nThe citrate and whole blood mixture were centrifuged at 1200 g for 5 minutes in order to obtain platelet-rich plasma (PRP) which was kept at room temperature for use within 1 hour. Platelet counts were determined for each PRP sample with a Coulter Counter ZM (Coulter Co., Hialeah, Fla.). Platelet numbers were adjusted to 3.50×10 ^8/ml with homologous platelet-poor plasma. Platelet aggregation (PA) was induced by 5 μM ADP, and 5 μM epinephrine. All agonists were obtained from Chronolog Corporation (Havertown, Pa.). Aggregation studies were performed using a 4 channel Chronolog Lumi-Aggregometer (model 560-Ca). Aggregation was expressed as the maximum percentage of light transmittance change (% max) from the baseline at the end of the recording time, using platelet-poor plasma as a reference. Aggregation curves were recorded for 6 minutes and analyzed according to internationally established standards. Ruggeri Z M, Semin Hemat 1994; 31: 229-239."}, "[3]": {"tested_on": "Glycoprotein IIb/IIIa activity (fibrinogen binding, PAC-1)", "assay": "Whole blood flow cytometry, GP IIb/IIIa activity (PAC-1)", "format": "cell-based, human", "settings": "for Glycoprotein IIb/IIIa activity (fibrinogen binding, PAC-1): baseline 10.3 ± 2.8", "protocol": "as §1\n(§2) The expression of platelet receptors was determined by using the following monoclonal antibodies: CD31 (platelet endothelial cell adhesion molecule (PECAM-1), CD41 (glycoprotein [GP] IIb/IIIa, (IIb (3), CD42b (GP Ib), CD 51/CD61 ((v (3, or vitronectin receptor), CD62p (P-selectin), CD107a (lysosome associated membrane protein-1; LAMP-1), CD 107b (LAMP-2), CD151 (platelet/endothelial tetraspan antigen-3; PETA-3), and PAC-1 for fibrinogen-platelet (PharMingen, San Diego, Calif.). Platelet-leukocyte interactions were assessed by using dual antibodies for a pan-platelet marker (CD 151), together with CD14, a monocyte/macrophage marker. The blood-citrate mixture (50 μl) was diluted with 450 μl Tris buffered saline (TBS) (10 mmol/L Tris, 0.15 mol/L sodium chloride) and mixed by gently inverting an Eppendorf tube 2 times. Five μl of the corresponding antibodies were then added to each solution and the samples were incubated for 30 minutes. After incubation, 400 μl of 2% buffered paraformaldehyde was added for fixation. The samples were analyzed by a Becton Dickinson FACScan flow cytometer set up to measure fluorescent light scatter, as described in Gurbel P A, et al., J Am Coll Cardiol. 1998; 31: 1466-1473. The data were collected in list mode files and then analyzed. P selectin was expressed as percent positive cells as described in Gurbel P A, et al, Am Heart J 2000; 139: 320-328. Other antigens were expressed as log mean fluorescence intensity."}, "[4]": {"tested_on": "lysosome associated membrane protein -2 (LAMP-2, CD107b)", "assay": "Whole blood flow cytometry, LAMP-2 expression", "format": "cell-based, human", "settings": "for Expression of lysosome associated membrane protein -2 (LAMP-2, CD107b): baseline 6.6 ± 2.1", "protocol": "as §1, §2"}, "[5]": {"settings": "patients undergoing valsartan therapy; cited from earlier work"}, "[6]": {"tested_on": "platelet/endothelial cell adhesion molecule-1 (PECAM-1, CD31)", "assay": "Whole blood flow cytometry, PECAM-1 expression", "format": "cell-based, human", "settings": "for Expression of platelet/endothelial cell adhesion molecule-1 (PECAM-1, CD31): baseline 69.2 ± 10.3", "protocol": "as §1, §2"}, "[7]": {"tested_on": "P-selectin (CD 62p)", "assay": "Whole blood flow cytometry, P-selectin expression", "format": "cell-based, human", "settings": "for Expression of P-selectin (CD 62p): baseline 9.1 ± 3.8", "protocol": "as §1, §2"}, "[8]": {"tested_on": "platelet glycoprotein IIb/IIIa antigen (GPIIb, CD41)", "assay": "Whole blood flow cytometry, GP IIb/IIIa antigen expression", "format": "cell-based, human", "settings": "for Expression of platelet glycoprotein IIb/IIIa antigen (GPIIb, CD41): baseline 521.8 ± 98.2", "protocol": "as §1, §2"}},
  "data": [
    {"smiles": "CC(O)CCC(=O)N(Cc1ccc(-c2ccccc2-c2nnn[nH]2)cc1)[C@H](C(=O)O)C(C)C", "note": "(stereo partly drawn) [Valeryl 4-hydroxy valsartan, (S)-2{(4-Hydroxy-pentanoyl)-[2′-(1H-tetrazol-5-yl)-biphenyl-4-ylmethyl]amino}-3-methyl-butyric Acid]", "values": [
      {"measurement": "Ultegra Analyzer", "setting": "[1]; drug 10 nM", "result": "177 ± 23", "unit": "platelet activation units"},
      {"measurement": "Ultegra Analyzer", "setting": "[1]; drug 100 nM", "result": "181 ± 31", "unit": "platelet activation units"},
      {"measurement": "Ultegra Analyzer", "setting": "[1]; drug 1 μM", "result": "134 ± 29", "unit": "platelet activation units"},
      {"measurement": "Ultegra Analyzer", "setting": "[1]; drug 10 μM", "result": "119 ± 38", "unit": "platelet activation units"},
      {"measurement": "Ultegra Analyzer", "setting": "[1]; drug 100 μM", "result": "168 ± 35", "unit": "platelet activation units"},
      {"measurement": "Effect on ADP-induced platelet aggregation (in words)", "setting": "[2]; PRP, 5 μM ADP, preincubation with escalating doses 10 nM to 100 μM", "result": "did not have any effect"},
      {"measurement": "Platelet rich plasma aggregation induced by 5 μM ADP", "setting": "[2]; drug 10 nM", "result": "75 ± 6", "unit": "%"},
      {"measurement": "Platelet rich plasma aggregation induced by 5 μM ADP", "setting": "[2]; drug 100 nM", "result": "76 ± 8", "unit": "%"},
      {"measurement": "Platelet rich plasma aggregation induced by 5 μM ADP", "setting": "[2]; drug 1 μM", "result": "77 ± 9", "unit": "%"},
      {"measurement": "Platelet rich plasma aggregation induced by 5 μM ADP", "setting": "[2]; drug 10 μM", "result": "76 ± 8", "unit": "%"},
      {"measurement": "Platelet rich plasma aggregation induced by 5 μM ADP", "setting": "[2]; drug 100 μM", "result": "77 ± 9", "unit": "%"},
      {"measurement": "Glycoprotein IIb/IIIa activity (fibrinogen binding, PAC-1)", "setting": "[3]; drug 10 nM", "result": "11.0 ± 4.5", "unit": "log MFI"},
      {"measurement": "Glycoprotein IIb/IIIa activity (fibrinogen binding, PAC-1)", "setting": "[3]; drug 100 nM", "result": "9.0 ± 3.3", "unit": "log MFI"},
      {"measurement": "Glycoprotein IIb/IIIa activity (fibrinogen binding, PAC-1)", "setting": "[3]; drug 1 μM", "result": "6.7 ± 2.7", "unit": "log MFI"},
      {"measurement": "Glycoprotein IIb/IIIa activity (fibrinogen binding, PAC-1)", "setting": "[3]; drug 10 μM", "result": "7.5 ± 3.1", "unit": "log MFI"},
      {"measurement": "Glycoprotein IIb/IIIa activity (fibrinogen binding, PAC-1)", "setting": "[3]; drug 100 μM", "result": "9.9 ± 3.0", "unit": "log MFI"},
      {"measurement": "Effect on fibrinogen binding (PAC-1) (in words)", "setting": "[3]; whole blood flow cytometry", "result": "slightly reduced"},
      {"measurement": "Expression of lysosome associated membrane protein -2 (LAMP-2, CD107b)", "setting": "[4]; drug 10 nM", "result": "7.7 ± 3.8", "unit": "log MFI"},
      {"measurement": "Expression of lysosome associated membrane protein -2 (LAMP-2, CD107b)", "setting": "[4]; drug 100 nM", "result": "7.0 ± 3.0", "unit": "log MFI"},
      {"measurement": "Expression of lysosome associated membrane protein -2 (LAMP-2, CD107b)", "setting": "[4]; drug 1 μM", "result": "6.6 ± 3.4", "unit": "log MFI"},
      {"measurement": "Expression of lysosome associated membrane protein -2 (LAMP-2, CD107b)", "setting": "[4]; drug 10 μM", "result": "7.2 ± 3.9", "unit": "log MFI"},
      {"measurement": "Expression of lysosome associated membrane protein -2 (LAMP-2, CD107b)", "setting": "[4]; drug 100 μM", "result": "7.1 ± 2.9", "unit": "log MFI"},
      {"measurement": "Effect on LAMP-2 (CD107b) (in words)", "setting": "[4]; whole blood flow cytometry", "result": "not associated with any effect"},
      {"measurement": "Level in plasma as share of valsartan levels", "setting": "[5]", "result": 10, "unit": "%"},
      {"measurement": "Expression of platelet/endothelial cell adhesion molecule-1 (PECAM-1, CD31)", "setting": "[6]; drug 10 nM", "result": "74.2 ± 13.4", "unit": "log MFI"},
      {"measurement": "Expression of platelet/endothelial cell adhesion molecule-1 (PECAM-1, CD31)", "setting": "[6]; drug 100 nM", "result": "69.7 ± 15.1", "unit": "log MFI"},
      {"measurement": "Expression of platelet/endothelial cell adhesion molecule-1 (PECAM-1, CD31)", "setting": "[6]; drug 1 μM", "result": "70.3 ± 16.4", "unit": "log MFI"},
      {"measurement": "Expression of platelet/endothelial cell adhesion molecule-1 (PECAM-1, CD31)", "setting": "[6]; drug 10 μM", "result": "73.1 ± 9.3", "unit": "log MFI"},
      {"measurement": "Expression of platelet/endothelial cell adhesion molecule-1 (PECAM-1, CD31)", "setting": "[6]; drug 100 μM", "result": "71.2 ± 15.5", "unit": "log MFI"},
      {"measurement": "Effect on PECAM-1 (CD31) (in words)", "setting": "[6]; whole blood flow cytometry", "result": "not associated with any effect"},
      {"measurement": "Expression of P-selectin (CD 62p)", "setting": "[7]; drug 10 nM", "result": "9.3 ± 4.3 % of cell positivity"},
      {"measurement": "Expression of P-selectin (CD 62p)", "setting": "[7]; drug 100 nM", "result": "10.2 ± 5.4 % of cell positivity"},
      {"measurement": "Expression of P-selectin (CD 62p)", "setting": "[7]; drug 1 μM", "result": "7.3 ± 3.7 % of cell positivity"},
      {"measurement": "Expression of P-selectin (CD 62p)", "setting": "[7]; drug 10 μM", "result": "6.9 ± 4.2 % of cell positivity"},
      {"measurement": "Expression of P-selectin (CD 62p)", "setting": "[7]; drug 100 μM", "result": "8.9 ± 3.8 % of cell positivity"},
      {"measurement": "Effect on P-selectin on platelet surface (in words)", "setting": "[7]; whole blood flow cytometry", "result": "significantly diminished"},
      {"measurement": "Expression of platelet glycoprotein IIb/IIIa antigen (GPIIb, CD41)", "setting": "[8]; drug 10 nM", "result": "505.6 ± 77.8", "unit": "log MFI"},
      {"measurement": "Expression of platelet glycoprotein IIb/IIIa antigen (GPIIb, CD41)", "setting": "[8]; drug 100 nM", "result": "432.7 ± 116.8", "unit": "log MFI"},
      {"measurement": "Expression of platelet glycoprotein IIb/IIIa antigen (GPIIb, CD41)", "setting": "[8]; drug 1 μM", "result": "427.2 ± 114.1", "unit": "log MFI"},
      {"measurement": "Expression of platelet glycoprotein IIb/IIIa antigen (GPIIb, CD41)", "setting": "[8]; drug 10 μM", "result": "515.9 ± 156.2", "unit": "log MFI"},
      {"measurement": "Expression of platelet glycoprotein IIb/IIIa antigen (GPIIb, CD41)", "setting": "[8]; drug 100 μM", "result": "529.3 ± 121.8", "unit": "log MFI"},
      {"measurement": "Effect on expression of GP IIb/IIIa (CD 41) (in words)", "setting": "[8]; whole blood flow cytometry", "result": "slightly reduced"}
    ]}
  ]
}
